pIC50: −log10 of the molar value.
Experiments:
[1] = molecular target: T1, Cytochrome P450 2C19 (Homo sapiens, UniProt P33261); test: Inhibition of recombinant human CYP2C19 expressed in HEK293 cells using 3-cyano-7-ethoxycoumarin as substrate pretreated for 30 mins followed by substrate addition measured for 60 mins by fluorescence assay; type: ADME
[2] = molecular target: T2, Cytochrome P450 1A1 (Homo sapiens, UniProt P04798); test: Inhibition of recombinant human CYP1A1 expressed in HEK293 cells using 7-ethoxyresorufin as substrate pretreated for 30 mins followed by substrate addition measured for 60 mins by fluorescence assay; type: cell-based
T2 sequence (P04798 whole entry): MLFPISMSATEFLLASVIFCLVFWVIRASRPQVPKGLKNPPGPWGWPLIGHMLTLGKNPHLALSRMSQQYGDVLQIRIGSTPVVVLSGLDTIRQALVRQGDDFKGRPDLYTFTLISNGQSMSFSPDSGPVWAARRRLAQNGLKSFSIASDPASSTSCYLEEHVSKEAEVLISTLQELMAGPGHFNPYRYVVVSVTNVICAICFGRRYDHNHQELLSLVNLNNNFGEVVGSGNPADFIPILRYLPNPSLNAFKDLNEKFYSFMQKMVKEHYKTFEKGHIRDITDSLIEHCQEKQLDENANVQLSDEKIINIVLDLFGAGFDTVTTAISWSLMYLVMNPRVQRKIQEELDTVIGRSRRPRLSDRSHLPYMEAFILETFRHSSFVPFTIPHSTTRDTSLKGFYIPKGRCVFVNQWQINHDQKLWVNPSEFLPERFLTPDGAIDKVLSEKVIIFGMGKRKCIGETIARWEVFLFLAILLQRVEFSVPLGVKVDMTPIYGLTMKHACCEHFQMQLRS

[3] = molecular target: T3, Cytochrome P450 3A4 (Homo sapiens, UniProt P08684); test: Inhibition of recombinant human CYP3A4 expressed in HEK293 cells using dibenzylfluorescein as substrate pretreated for 30 mins followed by substrate addition measured for 60 mins by fluorescence assay; type: ADME
[4] = species on record: Homo sapiens; test: Selectivity ratio of IC50 for recombinant human CYP1A2 expressed in HEK293 cells to IC50 for recombinant human CYP1A1 expressed in HEK293 cells; type: cell-based
[5] = species on record: Homo sapiens; test: Selectivity ratio of IC50 for recombinant human CYP1B1 expressed in HEK293 cells to IC50 for recombinant human CYP1A1 expressed in HEK293 cells; type: cell-based
[6] = molecular target: T4, Cytochrome P450 2C9 (Homo sapiens, UniProt P11712); test: Inhibition of recombinant human CYP2C9 expressed in HEK293 cells using 3-cyano-7-ethoxycoumarin as substrate pretreated for 30 mins followed by substrate addition measured for 60 mins by fluorescence assay; type: ADME
[7] = molecular target: T5, Cytochrome P450 2D6 (Homo sapiens, UniProt P10635); test: Inhibition of recombinant human CYP2D6 expressed in HEK293 cells using 7-ethoxy-methyloxy-3-cyanocoumarin as substrate pretreated for 30 mins followed by substrate addition measured for 60 mins by fluorescence assay; type: ADME, cell-based
[8] = molecular target: T4, Cytochrome P450 2C9; test: Inhibition of human CYP2C9 expressed in yeast microsomal membranes using 3-cyano-7-ethoxycoumarin as substrate measured after 10 mins by fluorescence assay; type: ADME, cell membranes, Microsomal Membrane
[9] = molecular target: T2, Cytochrome P450 1A1; test: Inhibition of human CYP1A1 expressed in yeast microsomal membranes using 7-ethoxyresorufin as substrate measured after 10 mins by fluorescence assay; type: cell membranes
[10] = molecular target: T6, Cytochrome P450 1B1 (Homo sapiens, UniProt Q16678); test: Inhibition of human CYP1B1 expressed in yeast microsomal membranes using 7-ethoxyresorufin as substrate measured after 10 mins by fluorescence assay; type: cell membranes
T6 sequence (Q16678 whole entry): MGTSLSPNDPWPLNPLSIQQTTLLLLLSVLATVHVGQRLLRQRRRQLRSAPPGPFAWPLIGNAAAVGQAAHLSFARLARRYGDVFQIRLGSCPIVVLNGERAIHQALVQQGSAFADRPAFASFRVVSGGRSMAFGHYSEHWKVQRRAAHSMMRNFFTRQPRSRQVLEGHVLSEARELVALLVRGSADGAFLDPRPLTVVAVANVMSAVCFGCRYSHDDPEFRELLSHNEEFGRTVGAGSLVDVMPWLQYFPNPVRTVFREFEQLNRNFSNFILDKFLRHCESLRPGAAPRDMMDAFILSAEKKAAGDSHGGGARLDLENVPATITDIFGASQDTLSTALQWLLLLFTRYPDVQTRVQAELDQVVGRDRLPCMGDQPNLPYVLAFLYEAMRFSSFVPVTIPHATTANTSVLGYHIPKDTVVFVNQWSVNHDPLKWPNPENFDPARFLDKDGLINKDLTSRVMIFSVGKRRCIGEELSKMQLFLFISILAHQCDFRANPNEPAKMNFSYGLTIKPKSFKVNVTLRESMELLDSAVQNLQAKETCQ

[11] = molecular target: T1, Cytochrome P450 2C19; test: Inhibition of human CYP2C19 expressed in yeast microsomal membranes using 3-cyano-7-ethoxycoumarin as substrate measured after 10 mins by fluorescence assay; type: ADME, cell membranes, Microsomal Membrane
[12] = molecular target: T7, Cytochrome P450 1A2 (Homo sapiens, UniProt P05177); test: Inhibition of recombinant human CYP1A2 expressed in HEK293 cells using 3-cyano-7-ethoxycoumarin as substrate pretreated for 30 mins followed by substrate addition measured for 60 mins by fluorescence assay; type: ADME
T7 sequence (P05177 whole entry): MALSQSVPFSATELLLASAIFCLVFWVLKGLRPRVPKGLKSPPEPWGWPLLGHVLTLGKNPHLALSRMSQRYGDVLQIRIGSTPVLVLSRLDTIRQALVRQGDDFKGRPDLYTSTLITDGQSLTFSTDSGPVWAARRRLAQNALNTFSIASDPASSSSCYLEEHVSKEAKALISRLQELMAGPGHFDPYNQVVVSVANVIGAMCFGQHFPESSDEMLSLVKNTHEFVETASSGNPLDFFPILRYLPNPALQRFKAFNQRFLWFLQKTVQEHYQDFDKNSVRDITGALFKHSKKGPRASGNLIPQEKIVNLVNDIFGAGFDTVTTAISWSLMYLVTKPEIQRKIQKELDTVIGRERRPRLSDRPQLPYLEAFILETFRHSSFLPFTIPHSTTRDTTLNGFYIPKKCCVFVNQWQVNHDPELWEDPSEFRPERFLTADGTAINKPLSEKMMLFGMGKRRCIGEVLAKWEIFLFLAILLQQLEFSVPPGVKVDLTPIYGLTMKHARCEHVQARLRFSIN

[13] = molecular target: T3, Cytochrome P450 3A4; test: Inhibition of human CYP3A4 expressed in yeast microsomal membranes using dibenzylfluorescein as substrate measured after 10 mins by fluorescence assay; type: ADME, cell membranes, Microsomal Membrane
[14] = molecular target: T8, Aryl hydrocarbon receptor (Homo sapiens, UniProt P35869); test: Antagonist activity at recombinant human eGFP-fused Ahr expressed in yeast cells co-expressing ARNT assessed as inhibition of benzo(a)pyrene-induced Ahr activation at 1 uM measured after 18 hrs by fluorescence assay; type: cell-based
T8 sequence (P35869 whole entry): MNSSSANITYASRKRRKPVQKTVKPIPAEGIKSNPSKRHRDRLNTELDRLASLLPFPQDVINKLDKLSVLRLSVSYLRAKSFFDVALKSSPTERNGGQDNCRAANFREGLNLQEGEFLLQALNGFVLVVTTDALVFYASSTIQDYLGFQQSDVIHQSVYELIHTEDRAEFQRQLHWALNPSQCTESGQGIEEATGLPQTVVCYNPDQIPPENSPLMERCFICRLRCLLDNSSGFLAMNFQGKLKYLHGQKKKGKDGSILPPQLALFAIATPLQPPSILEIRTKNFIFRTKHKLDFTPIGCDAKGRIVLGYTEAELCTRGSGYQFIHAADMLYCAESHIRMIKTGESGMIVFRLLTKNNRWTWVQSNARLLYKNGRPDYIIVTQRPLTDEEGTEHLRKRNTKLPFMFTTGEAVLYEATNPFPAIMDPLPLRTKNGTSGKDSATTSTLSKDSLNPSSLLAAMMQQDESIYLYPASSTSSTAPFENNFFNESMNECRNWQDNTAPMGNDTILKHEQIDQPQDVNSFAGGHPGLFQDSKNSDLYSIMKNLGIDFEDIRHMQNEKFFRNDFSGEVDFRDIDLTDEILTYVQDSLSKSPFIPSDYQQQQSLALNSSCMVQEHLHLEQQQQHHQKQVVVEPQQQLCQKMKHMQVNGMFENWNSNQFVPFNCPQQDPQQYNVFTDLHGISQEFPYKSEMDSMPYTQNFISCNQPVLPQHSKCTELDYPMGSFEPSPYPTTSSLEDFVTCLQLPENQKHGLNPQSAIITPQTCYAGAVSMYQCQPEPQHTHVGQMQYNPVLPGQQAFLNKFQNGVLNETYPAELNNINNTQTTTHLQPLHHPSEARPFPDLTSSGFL

[15] = molecular target: T6, Cytochrome P450 1B1; test: Inhibition of recombinant human CYP1B1 expressed in HEK293 cells using 7-ethoxyresorufin as substrate pretreated for 30 mins followed by substrate addition measured for 60 mins by fluorescence assay; type: cell-based
[16] = molecular target: T5, Cytochrome P450 2D6; test: Inhibition of human CYP2D6 expressed in yeast microsomal membranes using 7-ethoxy-methyloxy-3-cyanocoumarin as substrate measured after 10 mins by fluorescence assay; type: ADME, cell membranes, Microsomal Membrane
[17] = molecular target: T7, Cytochrome P450 1A2; test: Inhibition of human CYP1A2 expressed in yeast microsomal membranes using 3-cyano-7-ethoxycoumarin as substrate measured after 10 mins by fluorescence assay; type: ADME, cell membranes, Microsomal Membrane
[18] = molecular target: T6, Cytochrome P450 1B1; test: Inhibition of recombinant human CYP1B1 expressed in HEK293 cells assessed as potentiation of cisplatin-induced cytotoxicity by measuring reduction in cisplatin EC50 by MTT assay; type: cell-based
[19] = molecular target: T2, Cytochrome P450 1A1; test: Inhibition of recombinant human CYP1A1 expressed in HEK293 cells assessed as reduction in benzo(a)pyrene-induced toxicity by measuring increase in B[a]P EC50 at 2 times IC50 by MTT assay; type: cell-based

T5 sequence (P10635 whole entry): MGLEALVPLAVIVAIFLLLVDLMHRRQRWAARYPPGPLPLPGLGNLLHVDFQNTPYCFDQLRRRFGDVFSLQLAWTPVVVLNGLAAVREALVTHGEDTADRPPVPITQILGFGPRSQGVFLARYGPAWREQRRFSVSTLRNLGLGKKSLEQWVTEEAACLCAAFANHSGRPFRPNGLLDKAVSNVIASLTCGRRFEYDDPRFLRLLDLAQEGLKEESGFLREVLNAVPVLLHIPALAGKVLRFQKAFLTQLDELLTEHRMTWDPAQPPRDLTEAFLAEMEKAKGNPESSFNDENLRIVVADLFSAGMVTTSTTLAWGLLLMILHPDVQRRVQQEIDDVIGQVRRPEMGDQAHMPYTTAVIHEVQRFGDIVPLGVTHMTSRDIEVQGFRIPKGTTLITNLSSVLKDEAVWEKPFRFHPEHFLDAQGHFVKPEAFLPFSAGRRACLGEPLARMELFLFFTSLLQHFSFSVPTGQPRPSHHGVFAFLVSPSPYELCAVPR
T3 sequence (P08684 whole entry): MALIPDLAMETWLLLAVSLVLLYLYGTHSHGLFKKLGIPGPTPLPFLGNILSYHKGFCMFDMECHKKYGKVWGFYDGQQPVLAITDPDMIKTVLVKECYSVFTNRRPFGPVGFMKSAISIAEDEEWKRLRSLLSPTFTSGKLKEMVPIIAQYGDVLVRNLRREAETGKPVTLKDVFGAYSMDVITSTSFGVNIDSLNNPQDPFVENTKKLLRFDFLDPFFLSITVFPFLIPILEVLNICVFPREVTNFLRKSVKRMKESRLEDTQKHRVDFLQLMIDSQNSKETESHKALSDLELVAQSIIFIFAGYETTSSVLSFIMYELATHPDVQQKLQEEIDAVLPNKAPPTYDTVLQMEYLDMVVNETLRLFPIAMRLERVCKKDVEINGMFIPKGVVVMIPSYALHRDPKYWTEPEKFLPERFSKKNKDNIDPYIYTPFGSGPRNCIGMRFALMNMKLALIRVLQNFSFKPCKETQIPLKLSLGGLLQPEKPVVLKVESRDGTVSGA
T1 sequence (P33261 whole entry): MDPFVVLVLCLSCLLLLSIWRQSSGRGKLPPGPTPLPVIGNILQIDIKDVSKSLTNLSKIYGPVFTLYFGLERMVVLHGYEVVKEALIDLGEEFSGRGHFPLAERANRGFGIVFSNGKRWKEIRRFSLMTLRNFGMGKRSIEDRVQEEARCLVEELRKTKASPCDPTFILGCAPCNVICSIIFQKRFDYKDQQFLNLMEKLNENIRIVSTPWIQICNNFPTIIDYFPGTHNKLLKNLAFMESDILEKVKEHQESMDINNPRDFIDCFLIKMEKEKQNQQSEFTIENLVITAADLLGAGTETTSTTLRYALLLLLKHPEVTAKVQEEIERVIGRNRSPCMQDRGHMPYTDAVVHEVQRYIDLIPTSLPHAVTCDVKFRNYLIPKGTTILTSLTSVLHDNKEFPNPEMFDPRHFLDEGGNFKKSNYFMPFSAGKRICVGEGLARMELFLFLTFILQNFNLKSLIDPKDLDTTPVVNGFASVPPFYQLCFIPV
T4 sequence (P11712 whole entry): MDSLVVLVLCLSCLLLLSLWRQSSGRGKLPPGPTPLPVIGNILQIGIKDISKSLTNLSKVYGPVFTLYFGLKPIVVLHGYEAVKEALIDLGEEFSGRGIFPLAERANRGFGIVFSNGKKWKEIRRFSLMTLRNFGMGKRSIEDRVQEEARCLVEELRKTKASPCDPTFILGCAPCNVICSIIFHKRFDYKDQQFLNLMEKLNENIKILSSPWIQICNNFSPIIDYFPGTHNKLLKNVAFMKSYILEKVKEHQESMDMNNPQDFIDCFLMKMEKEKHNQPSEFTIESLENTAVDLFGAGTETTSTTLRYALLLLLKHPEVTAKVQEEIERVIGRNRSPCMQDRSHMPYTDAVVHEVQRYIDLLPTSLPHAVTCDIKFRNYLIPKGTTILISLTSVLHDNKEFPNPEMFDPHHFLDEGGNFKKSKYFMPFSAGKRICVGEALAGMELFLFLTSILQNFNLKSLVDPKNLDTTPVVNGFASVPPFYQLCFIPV

SMILES: CCOc1cc(/C=C/C(=O)c2ccncc2)cc(OC)c1OCC
- pIC50 [1]: < 5.00
- pIC50 [2]: 7.19
- pIC50 [3]: < 5.00
- Ratio IC50 [4]: < 10
- Ratio IC50 [5]: < 10
- pIC50 [6]: < 5.00
- pIC50 [7]: < 5.00
- pIC50 [8]: < 4.70
- pIC50 [9]: 7.19
- pIC50 [10]: 5.53
- pIC50 [11]: < 4.70
- pIC50 [12]: 6.09
- pIC50 [13]: < 4.70
- inhibition (INH) [14]: Active
- pIC50 [15]: 5.51
- pIC50 [16]: 4.82
- pIC50 [17]: 6.11

SMILES: O=c1cc(-c2ccccc2)oc2c1ccc1ccccc12 [ALPHA-NAPHTHOFLAVONE]
- inhibition (INH) [18]: Active
- inhibition (INH) [19]: Active

Reference: ChEMBL document CHEMBL4177690, “(E)-3-(3,4,5-Trimethoxyphenyl)-1-(pyridin-4-yl)prop-2-en-1-one, a heterocyclic chalcone is a potent and selective CYP1A1 inhibitor and cancer chemopreventive agent” (Bioorg Med Chem Lett, 2017)
